Laboratory results as given in US20060160879A1, “Indoles useful in the treatment of inflammation” (priority 2003, published 2006).

biological target: T1, mPGES-1 (Homo sapiens, UniProt O14684); assay: mPGES-1 assay: conversion of PGH2 to PGE2, PGE2 analysed by HPLC; type: biochemical; parameters: dose or concentration left out as unconfirmed
T1 construct: made in house; host or cells: E. coli (membrane fraction)
T1 sequence (O14684 1-152): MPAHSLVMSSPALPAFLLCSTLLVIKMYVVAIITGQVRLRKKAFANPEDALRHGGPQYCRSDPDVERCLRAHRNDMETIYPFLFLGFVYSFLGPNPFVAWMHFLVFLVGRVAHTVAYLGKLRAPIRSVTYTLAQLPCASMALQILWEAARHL
Protocol: In the assay mPGES-1 catalyses the reaction where the substrate PGH2 is converted to PGE2. mPGES-1 is expressed in E. coli and the membrane fraction is dissolved in 20 mM NaPi-buffer pH 8.0 and stored at −80° C. In the assay mPGES-1 is dissolved in 0.1M KPi-buffer pH 7.35 with 2.5 mM glutathione. The stop solution consists of H2O/MeCN (7/3), containing FeCl2 (25 mM) and HCl (0.15 M). The assay is performed at room temperature in 96-well plates. Analysis of the amount of PGE2 is performed with reversed phase HPLC (Waters 2795 equipped with a 3.9×150 mm C18 column). The mobile phase consists of H2O/MeCN (7/3), containing TFA (0.056%), and absorbance is measured at 195 nm with a Waters 2487 UV-detector.
The following is added chronologically to each well: • 1. 100 μL mPGES-1 in KPi-buffer with glutathione. Total protein concentration: 0.02 mg/mL. • 2. 1 μL inhibitor in DMSO. Incubation of the plate at room temperature for 25 minutes. • 3. 4 μL of a 0.25 mM PGH2 solution. Incubation of the plate at room temperature for 60 seconds. • 4. 100 μL stop solution. • 180 μL per sample is analyzed with HPLC.

SMILES	inhibition of mPGES-1 [%]
O=C(O)c1c(-c2ccccc2)c2cc(-c3cccnc3)ccc2n1CCCc1ccccc1 [Example 4, 3-Phenyl-1-(3-phenylpropyl)-5-(3-pyridyl)indole-2-carboxylic acid]	81
O=C(O)c1cccc(-c2c(C(=O)O)n(Cc3cccc(C(F)(F)F)c3)c3cccc(-c4ccccc4)c23)c1 [Example 6, 3-(3-Carboxyphenyl)-4-phenyl-1-[3-(trifluoromethyl)benzyl]indole-2-carboxylic acid]	100
O=C(O)c1cccc(-c2c(C(=O)O)n(Cc3cccc([N+](=O)[O-])c3)c3cc(-c4ccc(OCc5ccccc5)cc4)ccc23)c1 [Example 5, 6-(4-Benzyloxyphenyl)-3-(3-carboxyphenyl)-1-(3-nitrobenzyl)indole-2-carboxylic acid]	93
O=C(O)c1c(-c2ccccc2)c2cc(-c3ccc4c(c3)OCO4)ccc2n1CCCc1ccccc1 [Example 3, 5-(3,4-Methylenedioxyphenyl)-3-phenyl-1-(3-phenylpropyl)indole-2-carboxylic acid]	85
CC(C)(C)c1ccc(-c2ccc3c(-c4ccccc4)c(C(=O)O)n(Cc4cccc(Oc5ccccc5)c4)c3c2)cc1 [Example 1, 6-(4-tert-Butylphenyl)-1-(3-phenoxybenzyl)-3-phenylindole-2-carboxylic acid]	96
CC(C)(C)c1ccc(-c2ccc3c(-c4cccs4)c(C(=O)O)n(Cc4cccc(Oc5ccccc5)c4)c3c2)cc1 [Example 2, 6-(4-tert-Butylphenyl)-1-(3-phenoxybenzyl)-3-(2-thienyl)indole-2-carboxylic acid]	100
